Measurements: patent US20240018157A1, “CYCLIC COMPOUNDS AND METHODS OF USING SAME” (Schrödinger, Inc., priority 2019, published 2024)
Where a name gives a salt, the structure may show the parent alone.

Legend:
[1] = tested on: IL10 secretion, OCI-LY10 cells; assay: Human IL10 secretion assay, Assay 2 (Meso Scale Discovery); format: cell-based; conditions: 24 h incubation, MSD, read-out: IL-10 Secretion IC50 [nM] Assay 2
Method: (§1) IL10 is one of the cytokines that are regulated via activation of NF-kB signaling. For example, in ABC-DLBCL cell lines, the activated NF-kB signaling leads to increased IL10 secretion. Inhibition of NF-kB signaling has been shown leading to decreased IL10 secretion.
Assay 2: OCI-LY10 cells were seeded in IMEM supplemented with 20% fetal bovine serum at 4.8×10^5 cells per 160 μL per well in 96-well V-bottom cell culture plates (coming, 3894), treated with 120 nL of 3-fold serial compound dilutions, starting at 4 mM. The final vehicle concentration was 0.075% DMSO in all wells. After a 24 h incubation, human IL-10 pre-coated plates (Meso Scale Discovery) were washed 3 times with PBST, and 50 μL culture medium was aspirated into the MSD plate and incubated at 4° C. overnight. The supernatant was then discarded and the wells were washed 3 times with PBST. SULFO-TAG Anti-human IL-10 Antibody (50×) was diluted 50 fold according to the Meso Scale Protocol, then 25 μL of SULFO-TAG Anti-human IL-10 Antibody (1×) was added. After 2 h of incubation at RT, the supernatant was discarded and the well was washed 3 times with PBST. 2× read buffer was added and the signal was read on an MSD Sector S600. The effect of a particular compound on IL10 secretion is shown relative to the effect of DMSO; set as 100%. IC50 values (nM) were determined using 4-parametric curve-fitting.

[2] = tested on: IL10 secretion, OCI-LY10 cells; assay: Human IL10 secretion assay, Assay 1 (HTRF); format: cell-based; conditions: 24 h incubation, read-out: IL-10 Secretion IC50 [nM] Assay 1
Method: as §1
Assay 1: OCI-LY10 cells were seeded in IMEM supplemented with 20% fetal bovine serum at 3×10^5 cells per well in 96-well round bottom plates (Corning 3799, Corning), treated with 100 nL of 3-fold serial compound dilutions, starting at 10 mM. The final vehicle concentration was 0.1% DMSO in all wells. After 24 h incubation, the cells were transferred to 96-PCR plates (Axygen: PCR-96-FLT-C) and centrifuged, then 16 μL of cell culture media was transferred to HTRF plates and IL10 levels were measured using human IL-10 Assay Kits (Cisbio) using HTRF format. The signals were transformed to percentage of remaining activity by using the high control (HC, median of signal from wells containing cells treated with DMSO) and low control (LC, median of signal from wells with no cells). IC50 values (nM) were determined using 4-parametric curve-fitting and Hill coefficient were obtained using Graph Pad Prism (Graph Pad software, Inc, USA) with non-linear regression analysis.

[3] = target: full-length MALT1 protein His-MALT1(1-824) (Homo sapiens (Human), UniProt Q9UDY8); assay: MALT1 protease assay, Assay 2 (1 nM MALT1, Ac-LRSR-AMC substrate); format: biochemical; conditions: 1 nM MALT1, 50 μM Ac-LRSR-AMC, 2 h pre-incubation, 8 hr incubation at RT
Method: MALT1 protease activity was assessed in an in vitro assay using a tetrapeptide as substrate and full-length MALT1 protein His-MALT1(1-824) purified from baculovirus-infected insect cells.
The final assay buffer includes 1 nM (Assay 2) or 2 nM (Assay 1) of MALT1 full-length protein, 50 μM Ac-LRSR-AMC substrate, 50 mM Tris pH 7.5, 600 mM Sodium Citrate, 1 mM DTT, 1 mM EDTA, and 0.05% BSA in 384-well plate format using black microtiter square well plates (Optiplate 384-F, Perkin Elmer).
Test compounds were dissolved in 100% DMSO at stock of 10 mM, with final DMSO concentration 0.1%. Test compounds were pre-incubated with MALT1 protein for 2 h at room temperature. Substrate was added after the pre-incubation and fluorescence signal was measured using Envision at excitation 355 nm and emission 460 nm after 8 hr incubation at RT.
The fluorescence units were transformed to percentage of remaining activity by using the high control (HC, median of fluorescence signal from wells containing MALT1 protein, substrate, and DMSO) and low control (LC, median of fluorescence signal from wells with substrate only) with the formula below: […]
IC50 and Hill coefficient were obtained using Graph Pad Prism (Graph Pad software, Inc, USA) with non-linear regression analysis.

Sequence of full-length MALT1 protein His-MALT1(1-824) (Q9UDY8 whole entry): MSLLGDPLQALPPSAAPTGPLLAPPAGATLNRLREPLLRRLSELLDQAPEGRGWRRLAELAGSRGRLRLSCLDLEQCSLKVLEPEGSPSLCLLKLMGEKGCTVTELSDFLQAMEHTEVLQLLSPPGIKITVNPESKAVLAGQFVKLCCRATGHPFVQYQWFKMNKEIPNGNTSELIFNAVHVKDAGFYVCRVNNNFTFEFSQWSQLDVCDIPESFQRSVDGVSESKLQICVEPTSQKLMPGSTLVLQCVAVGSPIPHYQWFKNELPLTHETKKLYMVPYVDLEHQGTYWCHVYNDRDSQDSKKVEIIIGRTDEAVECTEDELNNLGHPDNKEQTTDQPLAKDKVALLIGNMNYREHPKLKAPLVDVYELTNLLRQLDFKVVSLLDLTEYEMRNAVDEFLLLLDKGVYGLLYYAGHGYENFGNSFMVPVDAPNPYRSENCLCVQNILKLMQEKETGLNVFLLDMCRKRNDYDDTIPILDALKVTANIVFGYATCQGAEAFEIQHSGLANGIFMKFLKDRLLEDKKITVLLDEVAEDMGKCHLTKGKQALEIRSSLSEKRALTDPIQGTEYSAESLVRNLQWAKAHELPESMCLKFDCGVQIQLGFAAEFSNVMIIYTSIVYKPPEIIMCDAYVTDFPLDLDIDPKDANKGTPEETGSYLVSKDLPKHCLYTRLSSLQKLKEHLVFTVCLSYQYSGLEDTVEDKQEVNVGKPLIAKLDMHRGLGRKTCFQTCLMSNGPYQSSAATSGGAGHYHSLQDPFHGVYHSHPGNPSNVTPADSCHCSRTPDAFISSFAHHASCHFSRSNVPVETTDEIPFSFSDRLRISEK

COc1cnn(-c2ncc(NC(=O)N3C[C@@](C)(C(F)(F)F)c4c3cnc3cc(Cl)nn43)cc2Cl)n1 [compound 92, (R)-2-chloro-N-(5-chloro-6(4-methoxy-2H-1,2,3-triazol-2-yl)pyridin-3-yl)-8-methyl-8-(trifluoromethyl)-7,8-dihydro-6H-pyrazolo[1,5-a]pyrrolo[2,3-e]pyrimidine-6-carboxamide]
IC50 [1]: 10 to 100 nM

CC(O)c1cnn(-c2ncc(NC(=O)N3C[C@@](C)(C(F)(F)F)c4c3cnc3cc(F)nn43)cc2C(F)F)n1 (stereo partly drawn) [compound 191, (8R)-N-(5-(difluoromethyl)-6-(4-(1-hydroxyethyl)-2H-1,2,3-triazol-2-yl)pyridin-3-yl)-2-fluoro-8-methyl-8-(trifluoromethyl)-7,8-dihydro-6H-pyrazolo[1,5-a]pyrrolo[2,3-e]pyrimidine-6-carboxamide]
IC50 [2]: 10 to 100 nM
IC50 [1]: 10 to 100 nM

CC1(C(F)(F)F)CN(C(=O)Nc2cnc(-n3nccn3)c(Cl)c2)c2cnc3cc(C(F)F)nn3c21 (stereo not shown) [Compound 62]
IC50 [3]: 10 to 100 nM
IC50 [2]: 10 to 100 nM

C[C@@]1(C(F)(F)F)CN(C(=O)Nc2cnnc(C(F)(F)F)c2)c2cnc3cc(Cl)nn3c21 [compound 59, (R)-11-chloro-3-methyl-3-(trifluoromethyl)-N-[6-(trifluoromethyl)pyridazin-4-yl]-1,5,8,12-tetrazatricyclo[7.3.0.02,6]dodeca-2(6),7,9,11-tetraene-5-carboxamide]
IC50 [3]: 10 to 100 nM
IC50 [2]: 10 to 100 nM

C[C@@]1(C(F)(F)F)CN(C(=O)Nc2cnc(-n3nccn3)c(C(F)F)c2)c2cnc3cc(Cl)nn3c21 [compound 35, (R)-2-chloro-N-(5-(difluoromethyl)-6-(2H-1,2,3-triazol-2-yl)pyridin-3-yl)-8-methyl-8-(trifluoromethyl)-7,8-dihydro-6H-pyrazolo[1,5-a]pyrrolo[2,3-e]pyrimidine-6-carboxamide]
IC50 [2]: 10 to 100 nM
IC50 [1]: 10 to 100 nM

C[C@@]1(C(F)(F)F)CN(C(=O)Nc2cnc(C(O)C3CC3)c(Cl)c2)c2cnc3cc(Cl)nn3c21 (stereo partly drawn) [compound 72, (8R)-2-chloro-N-(5-chloro-6-(cyclopropyl(hydroxy)methyl)pyridin-3-yl)-8-methyl-8-(trifluoromethyl)-7,8-dihydro-6H-pyrazolo[1,5-a]pyrrolo[2,3-e]pyrimidine-6-carboxamide]
IC50 [3]: 10 to 100 nM
IC50 [2]: 100 to 1000 nM

C[C@H]1COC(=O)N1c1cc(NC(=O)N2C[C@@](C)(C(F)(F)F)c3c2cnc2cc(Cl)nn32)cc(C(F)(F)F)n1 [compound 84, (R)-2-chloro-8-methyl-N-(2-((S)-4-methyl-2-oxooxazolidin-3-yl)-6-(trifluoromethyl)pyridine-4-yl)-8-(trifluoromethyl)-7,8-dihydro-6H-pyrazolo[1,5-a]pyrrolo[2,3-e]pyrimidine-6-carboxamide]
IC50 [3]: 10 to 100 nM
IC50 [2]: 100 to 1000 nM

CN(C)C(=O)c1ncc(NC(=O)N2C[C@@](C)(C(F)(F)F)c3c2cnc2cc(Cl)nn32)cc1C(F)F [compound 122, (R)-2-chloro-N-(5-(difluoromethyl)-6-(dimethylcarbamoyl)pyridin-3-yl)-8-methyl-8-(trifluoromethyl)-7,8-dihydro-6H-pyrazolo[1,5-a]pyrrolo[2,3-e]pyrimidine-6-carboxamide]
IC50 [2]: 10 to 100 nM
IC50 [1]: 10 to 100 nM

CN(C(=O)c1ncc(NC(=O)N2C[C@@](C)(C(F)(F)F)c3c2cnc2cc(Cl)nn32)cc1C(F)F)C1CC1 [compound 151, (R)-2-chloro-N-(6-(cyclopropyl(methyl)carbamoyl)-5-(difluoromethyl)pyridin-3-yl)-8-methyl-8-(trifluoromethyl)-7,8-dihydro-6H-pyrazolo[1,5-a]pyrrolo[2,3-e]pyrimidine-6-carboxamide]
IC50 [2]: 10 to 100 nM
IC50 [1]: 10 to 100 nM

C[C@@]1(C(F)(F)F)CN(C(=O)Nc2cnc(-n3nccn3)c(C(F)(F)F)c2)c2cnc3cc(Cl)nn3c21 [compound 40, (R)-N-(6-(2H-1,2,3-triazol-2-yl)-5-(trifluoromethyl)pyridin-3-yl)-2-chloro-8-methyl-8-(trifluoromethyl)-7,8-dihydro-6H-pyrazolo[1,5-a]pyrrolo[2,3-e]pyrimidine-6-carboxamide]
IC50 [2]: 10 to 100 nM
IC50 [1]: 10 to 100 nM

COc1c(C)cc(NC(=O)N2C[C@@](C)(C(F)(F)F)c3c2cnc2cc(Cl)nn32)nc1O[C@H]1CCNC1 [compound 82, (R)-2-chloro-N-(5-methoxy-4-methyl-6-(((S)-pyrrolidin-3-yl)oxy)pyridin-2-yl)-8-methyl-8-(trifluoromethyl)-7,8-dihydro-6H-pyrazolo[1,5-a]pyrrolo[2,3-e]pyrimidine-6-carboxamide formate]
IC50 [3]: 10 to 100 nM
IC50 [2]: 100 to 1000 nM

C[C@@]1(C(F)(F)F)CN(C(=O)Nc2cnc(-n3nccn3)c(Cl)c2)c2cnc3cc(F)nn3c21 [compound 39, (R)-N-(5-chloro-6-(2H-1,2,3-triazol-2-yl)pyridin-3-yl)-2-fluoro-8-methyl-8-(trifluoromethyl)-7,8-dihydro-6H-pyrazolo[1,5-a]pyrrolo[2,3-e]pyrimidine-6-carboxamide]
IC50 [2]: 10 to 100 nM
IC50 [1]: 10 to 100 nM

O=C(Nc1cnc(-n2nccn2)c(Cl)c1)N1CC(O)(C(F)(F)F)c2c1cnc1cc(Cl)nn21 (stereo not shown) [compound 201, 2-chloro-N-(5-chloro-6-(2H-1,2,3-triazol-2-yl)pyridin-3-yl)-8-hydroxy-8-(trifluoromethyl)-7,8-dihydro-6H-pyrazolo[1,5-a]pyrrolo[2,3-e]pyrimidine-6-carboxamide]
IC50 [2]: 10 to 100 nM
IC50 [1]: 10 to 100 nM

Cc1cc(NC(=O)N2C[C@@](C)(C(F)(F)F)c3c2cnc2cc(F)nn32)cnc1-n1nccn1 [compound 125, (R)-2-fluoro-8-methyl-N-(5-methyl-6-(2H-1,2,3-triazol-2-yl)pyridin-3-yl)-8-(trifluoromethyl)-7,8-dihydro-6H-pyrazolo[1,5-a]pyrrolo[2,3-e]pyrimidine-6-carboxamide]
IC50 [2]: 10 to 100 nM
IC50 [1]: 10 to 100 nM

C[C@@]1(C(F)(F)F)CN(C(=O)Nc2cc(C#N)nc(C(F)(F)F)c2)c2cnc3cc(Cl)nn3c21 [compound 61, (R)-2-chloro-N-(2-cyano-6-(trifluoromethyl)pyridin-4-yl)-8-methyl-8-(trifluoromethyl)-7,8-dihydro-6H-pyrazolo[1,5-a]pyrrolo[2,3-e]pyrimidine-6-carboxamide]
IC50 [3]: 10 to 100 nM
IC50 [2]: 100 to 1000 nM

C[C@@]1(C(F)(F)F)CN(C(=O)Nc2cnc(-n3nccn3)c(C#N)c2)c2cnc3cc(F)nn3c21 [compound 91, (R)-N-(5-cyano-6-(2H-1,2,3-triazol-2-yl)pyridin-3-yl)-2-fluoro-8-methyl-8-(trifluoromethyl)-7,8-dihydro-6H-pyrazolo[1,5-a]pyrrolo[2,3-e]pyrimidine-6-carboxamide]
IC50 [1]: 10 to 100 nM

C[C@@]1(C(F)(F)F)CN(C(=O)Nc2cnn(C(F)F)c2)c2cnc3cc(Cl)nn3c21 [compound 64, (R)-2-chloro-N-(1-(difluoromethyl)-1H-pyrazol-4-yl)-8-methyl-8-(trifluoromethyl)-7,8-dihydro-6H-pyrazolo[1,5-a]pyrrolo[2,3-e]pyrimidine-6-carboxamide]
IC50 [3]: 10 to 100 nM
IC50 [2]: 10 to 100 nM

C[C@H](O)COc1ncc(NC(=O)N2C[C@@](C)(C(F)(F)F)c3c2cnc2cc(Cl)nn32)cc1Cl [compound 73, (R)-2-chloro-N-(5-chloro-6-((S)-2-hydroxypropoxy)pyridin-3-yl)-8-methyl-8-(trifluoromethyl)-7,8-dihydro-6H-pyrazolo[1,5-a]pyrrolo[2,3-e]pyrimidine-6-carboxamide]
IC50 [3]: 10 to 100 nM
IC50 [2]: 10 to 100 nM
